Values of other authors in patent US9011962B2, “Bovine meat compositions having enhanced quality, nutritive and health values obtained from enrichment diets” (priority 2007, dated 2015).

Key:
[1] = in vivo

C[Se]CC[C@H](N)C(=O)O [Selenomethionine, selenomethionine]
Bioavailability (relative) [1]: 245

[Se] [selenium]
upper limit from food and supplements likely to pose no risk of adverse health effects (FDA): 400 micrograms per day
safe daily intake for human use (Rayman review): approximately 15 micrograms per kilogram body weight per day
lowest-observed adverse effect level of selenium intake (recognized by FDA): 900 micrograms per day
no-observed adverse effect level (recognized by FDA): 800 micrograms per day
